What was measured:
Format in all cases: cell-based
[1] = system: Staphylococcus aureus FDA 209P; experiment: MIC, standard serial dilution method; conditions: Muller-Hinton agar medium, 37° C.
[2] = system: Staphylococcus aureus Smith; experiment: MIC, standard serial dilution method; conditions: Muller-Hinton agar medium, 37° C.
[3] = system: Staphylococcus aureus MS 9610; experiment: MIC, standard serial dilution method; conditions: Muller-Hinton agar medium, 37° C.
[4] = system: Staphylococcus aureus No. 5 (MRSA); experiment: MIC, standard serial dilution method; conditions: Muller-Hinton agar medium, 37° C.
[5] = system: Staphylococcus aureus No. 17 (MRSA); experiment: MIC, standard serial dilution method; conditions: Muller-Hinton agar medium, 37° C.
[6] = system: Staphylococcus aureus MS 16526; experiment: MIC, standard serial dilution method; conditions: Muller-Hinton agar medium, 37° C.
[7] = system: Staphylococcus aureus TY-0428; experiment: MIC, standard serial dilution method; conditions: Muller-Hinton agar medium, 37° C.
[8] = system: Micrococcus luteus FDA 16; experiment: MIC, standard serial dilution method; conditions: Muller-Hinton agar medium, 37° C.
[9] = system: Micrococcus luteus IFO 3333; experiment: MIC, standard serial dilution method; conditions: Muller-Hinton agar medium, 37° C.
[10] = system: Micrococcus luteus PIC 1001; experiment: MIC, standard serial dilution method; conditions: Muller-Hinton agar medium, 37° C.
Bacillus anthracis = conditions: Muller-Hinton agar medium, 37° C.
[11] = system: Bacillus subtilis NRRL B-558; experiment: MIC, standard serial dilution method; conditions: Muller-Hinton agar medium, 37° C.
[12] = system: Bacillus subtilis PCI 219; experiment: MIC, standard serial dilution method; conditions: Muller-Hinton agar medium, 37° C.
[13] = system: Bacillus cereus ATCC 10702; experiment: MIC, standard serial dilution method; conditions: Muller-Hinton agar medium, 37° C.
[14] = system: Corynebacterium bovis 1810; experiment: MIC, standard serial dilution method; conditions: Muller-Hinton agar medium, 37° C.
Escherichia coli NIHJ = experiment: MIC, standard serial dilution method; conditions: Muller-Hinton agar medium, 37° C.
Escherichia coli K-12 = experiment: MIC, standard serial dilution method; conditions: Muller-Hinton agar medium, 37° C.
Escherichia coli BEM 11 = experiment: MIC, standard serial dilution method; conditions: Muller-Hinton agar medium, 37° C.
[15] = system: Escherichia coli BEM 1121; experiment: MIC, standard serial dilution method; conditions: Muller-Hinton agar medium, 37° C.
Escherichia coli BE 1186 = experiment: MIC, standard serial dilution method; conditions: Muller-Hinton agar medium, 37° C.
[16] = system: Shigella dysenteria JS 11910; experiment: MIC, standard serial dilution method; conditions: Muller-Hinton agar medium, 37° C.
[17] = system: Escherichia coli K-12 ML 1692; experiment: MIC, standard serial dilution method; conditions: Muller-Hinton agar medium, 37° C.
Protocol: (§1) The antibacterial activities of the amythiamicin amide derivative of the general formula (I) according to this invention are now concretely described. Compounds No. 1 to No. 11 according to this invention, which were respectively prepared in Examples 1 to 11 hereinafter given, were tested as the test compounds for their minimum inhibitory concentrations (MIC.) (μg/ml) against growth of a variety of test microorganisms by a standard serial dilution method. In the tests, the incubation medium used was Muller-Hinton agar medium and the incubation temperature was 37° C. The test results are shown as antibacterial spectra in the following Tables 2 and 3.

[18] = system: Shigella clexnerl JS 11749; experiment: MIC, standard serial dilution method; conditions: Muller-Hinton agar medium, 37° C.
Protocol: as §1

Shigella sonnei JS 11746 = experiment: MIC, standard serial dilution method; conditions: Muller-Hinton agar medium, 37° C.
Protocol: as §1

Salmonella typhi T-63 = experiment: MIC, standard serial dilution method; conditions: Muller-Hinton agar medium, 37° C.
[19] = system: Salmonella enteritidis 1891; experiment: MIC, standard serial dilution method; conditions: Muller-Hinton agar medium, 37° C.
Proteus vulgaris OX 19 = experiment: MIC, standard serial dilution method; conditions: Muller-Hinton agar medium, 37° C.
[20] = system: Proteus mirabilis IFM OM-9; experiment: MIC, standard serial dilution method; conditions: Muller-Hinton agar medium, 37° C.
[21] = system: Providencia rettgeri GN 311; experiment: MIC, standard serial dilution method; conditions: Muller-Hinton agar medium, 37° C.
[22] = system: Providencia rettgeri GN 466; experiment: MIC, standard serial dilution method; conditions: Muller-Hinton agar medium, 37° C.
Serratia marcescens = experiment: MIC, standard serial dilution method; conditions: Muller-Hinton agar medium, 37° C.
[23] = system: Pseudomonas aeruginosa A3; experiment: MIC, standard serial dilution method; conditions: Muller-Hinton agar medium, 37° C.
[24] = system: Pseudomonas aeruginosa GN315; experiment: MIC, standard serial dilution method; conditions: Muller-Hinton agar medium, 37° C.
[25] = system: Klebsiella pneumonia PCI 602; experiment: MIC, standard serial dilution method; conditions: Klebsiella pneumonia PCI 602 (Table 2); Muller-Hinton agar medium, 37° C.
[26] = system: Mycobacterium smegmatis ATCC 607; experiment: MIC, standard serial dilution method; conditions: Muller-Hinton agar medium, 37° C.
Candida albicans 3147 = experiment: MIC, standard serial dilution method; conditions: Muller-Hinton agar medium, 37° C.

Compound | Minimum growth inhibitory concentrations (MIC.) [1] [mg/L] | Minimum growth inhibitory concentrations (MIC.) [2] [mg/L] | Minimum growth inhibitory concentrations (MIC.) [3] [mg/L] | Minimum growth inhibitory concentrations (MIC.) [4] [mg/L] | Minimum growth inhibitory concentrations (MIC.) [5] [mg/L] | Minimum growth inhibitory concentrations (MIC.) [6] [mg/L] | Minimum growth inhibitory concentrations (MIC.) [7] [mg/L] | Minimum growth inhibitory concentrations (MIC.) [8] [mg/L] | Minimum growth inhibitory concentrations (MIC.) [9] [mg/L] | Minimum growth inhibitory concentrations (MIC.) [10] [mg/L] | Minimum growth inhibitory concentrations (MIC.) (Bacillus anthracis) [mg/L] | Minimum growth inhibitory concentrations (MIC.) [11] [mg/L] | Minimum growth inhibitory concentrations (MIC.) [12] [mg/L] | Minimum growth inhibitory concentrations (MIC.) [13] [mg/L] | Minimum growth inhibitory concentrations (MIC.) [14] [mg/L] | Minimum growth inhibitory concentrations (MIC.) (Escherichia coli NIHJ) [mg/L] | Minimum growth inhibitory concentrations (MIC.) (Escherichia coli K-12) [mg/L] | Minimum growth inhibitory concentrations (MIC.) (Escherichia coli BEM 11) [mg/L] | Minimum growth inhibitory concentrations (MIC.) [15] [mg/L] | Minimum growth inhibitory concentrations (MIC.) (Escherichia coli BE 1186) [mg/L] | also measured
CCCCNCCCNCCCNC(=O)c1csc(-c2ccc3c(n2)-c2csc(n2)-c2csc(n2)C(C(C)C)NC(=O)CNC(=O)c2csc(n2)C(C(C)C)NC(=O)c2nc(sc2C)C(CC(=O)NC)NC(=O)c2csc-3n2)n1 (stereo not drawn) [Compound No. 6] | 50 | 25 | > 100 | > 100 | > 100 | > 100 | > 100 | > 100 | > 100 | > 100 | 25 | 25 | > 100 | > 100 | > 100 | > 100 | > 100 | > 100 | > 100 | > 100 | Minimum growth inhibitory concentrations (MIC.) [16]: > 100 mg/L; Minimum growth inhibitory concentrations (MIC.) [17]: > 100 mg/L; Minimum growth inhibitory concentrations (MIC.) [18]: > 100 mg/L; Minimum growth inhibitory concentrations (MIC.) (Shigella sonnei JS 11746): > 100 mg/L; Minimum growth inhibitory concentrations (MIC.) (Salmonella typhi T-63): > 100 mg/L; Minimum growth inhibitory concentrations (MIC.) [19]: > 100 mg/L; Minimum growth inhibitory concentrations (MIC.) (Proteus vulgaris OX 19): > 100 mg/L; Minimum growth inhibitory concentrations (MIC.) [20]: > 100 mg/L; Minimum growth inhibitory concentrations (MIC.) [21]: > 100 mg/L; Minimum growth inhibitory concentrations (MIC.) [22]: > 100 mg/L; Minimum growth inhibitory concentrations (MIC.) (Serratia marcescens): > 100 mg/L; Minimum growth inhibitory concentrations (MIC.) [23]: > 100 mg/L; Minimum growth inhibitory concentrations (MIC.) [24]: > 100 mg/L; Minimum growth inhibitory concentrations (MIC.) [25]: > 100 mg/L; Minimum growth inhibitory concentrations (MIC.) [26]: > 100 mg/L; Minimum growth inhibitory concentrations (MIC.) (Candida albicans 3147): > 100 mg/L
CNC(=O)CC1NC(=O)c2csc(n2)-c2ccc(-c3nc(C(=O)NCCCN(C)CCCNCCc4ccc(Cl)cc4)cs3)nc2-c2csc(n2)-c2csc(n2)C(C(C)C)NC(=O)CNC(=O)c2csc(n2)C(C(C)C)NC(=O)c2nc1sc2C (stereo not drawn) [Compound No. 7] | > 100 | > 100 | > 100 | > 100 | > 100 | > 100 | > 100 | 6.25 | 12.5 | 12.5 | > 100 | > 100 | 50 | > 100 | 25 | > 100 | > 100 | > 100 | > 100 | > 100 | Minimum growth inhibitory concentrations (MIC.) [16]: > 100 mg/L; Minimum growth inhibitory concentrations (MIC.) [17]: > 100 mg/L; Minimum growth inhibitory concentrations (MIC.) [18]: > 100 mg/L; Minimum growth inhibitory concentrations (MIC.) (Shigella sonnei JS 11746): > 100 mg/L; Minimum growth inhibitory concentrations (MIC.) (Salmonella typhi T-63): > 100 mg/L; Minimum growth inhibitory concentrations (MIC.) [19]: > 100 mg/L; Minimum growth inhibitory concentrations (MIC.) (Proteus vulgaris OX 19): > 100 mg/L; Minimum growth inhibitory concentrations (MIC.) [20]: > 100 mg/L; Minimum growth inhibitory concentrations (MIC.) [21]: > 100 mg/L; Minimum growth inhibitory concentrations (MIC.) [22]: > 100 mg/L; Minimum growth inhibitory concentrations (MIC.) (Serratia marcescens): > 100 mg/L; Minimum growth inhibitory concentrations (MIC.) [23]: > 100 mg/L; Minimum growth inhibitory concentrations (MIC.) [24]: > 100 mg/L; Minimum growth inhibitory concentrations (MIC.) [25]: > 100 mg/L; Minimum growth inhibitory concentrations (MIC.) [26]: > 100 mg/L; Minimum growth inhibitory concentrations (MIC.) (Candida albicans 3147): > 100 mg/L

From patent US6043217A, “Amide derivative of amythiamicin” (Zaidan Hojin Biseibutsu Kagaku Kenyu Kai, priority 1996, dated 2000)
